Results reported in patent publication US4657927A, “Malonato platinum compounds” (Research Corporation, priority 1983, dated 1987).

Experiments:
[1] = test system: Sarcoma 180; assay: Antitumor activity, solid sarcoma 180 tumor, T/C of tumor weights at day 10 (Table I); format: in vivo, female Swiss white mice
Method: The compounds of the invention were tested for antitumor activity, i.e., for sensitivity to a planar dsp^2 platinum(II) coordination compound or an octahedral d^2 sp^3 platinum(IV) coordination compound using our standard screening tumor, solid sarcoma 180 tumor in female Swiss white mice, following standard protocols for this testing as set by the National Cancer Institute. (Cancer Chemotherapy Rep., 25 (1962)).
For these tests an S 180 tumor taken from a sacrificed mouse was disected free of superfluous tissue and cut under sterile conditions into approximately 10 milligram size pieces. These tissue pieces were then implanted by trocar in the left axillary region, subcutaneously, in new mice. The mice were, on the average, approximately four weeks old and weighed 18-20 grams. Taking day 0 as the day of implant, the animals were sacrificed on day 10. The tumors were excised and weighed and the ratio of the weights of the tumors in mice in the treated animals to the control set of animals was obtained. This ratio, multiplied by 100, is given as the T/C ratio in Table I.
For the first set of tests the coordination compound was freshly dissolved in sterile distilled water and injected intraperitoneally on day 1 into each of the test mice. The volume of the injection was usually 1/2 ml. In some cases, in order to get an active dose into the animal where the chemical was not soluble in this amount of solvent, a fine dispersion was prepared of the dose needed for the test. Thus, some of our test results were obtained on animals where a slurry of the compound was injected. These are so noted in Table I below. In addition, for some of the compounds, there was injected about 1 ml of solution, either in one single injection, or in 2 injections given a few hours apart of 1/2 ml each. These injections were initially given in 4 different dose levels for each new compound with 6 mice in each dose level. The tests covered a dose range from a low ineffective dose, to an upper dose level which produced some deaths within the time period of the experiment.

[2] = test system: Sarcoma 180; assay: Large Sarcoma 180 regressions, injection on day 8 (Table II); format: in vivo, female Swiss white mice; conditions: single i.p. injection on day 8, H2O solution
Method: In addition to the day 1 injections described above, in a number of case injections were delayed until day 8 of tumor growth. In these cases the tumor was usually at least larger than 1/2 gm, as estimated by palpation. The animals were then injected and observed for a period of approximately 60 days. Activity was measured by the number of animals whose tumors had regressed to the vanishing point, while still allowing the animal to survive for this time period. Such test results are described in TABLE II below.

[3] = test system: Walker 256 Carcinosarcoma; assay: Confirmatory antitumor test, Walker 256 Carcinosarcoma (Table III); format: in vivo, Rat; conditions: single injection day 1 in oil, i.p.
Method: (§1) Confirmatory tests of antitumor activity against the Walker 256 Carcinosarcoma in rats, and the ADJ/PC6A tumor in mice were conducted. The initial test results are shown in Table III and confirm the potent action of the compounds of the invention against these other tumor systems.

[4] = test system: ADJ/PC6A; assay: Confirmatory antitumor test, ADJ/PC6A tumor (Table III); format: in vivo, Mouse; conditions: single injection day 25 in oil, i.p.
Method: as §1

[5] = test system: L1210; assay: Confirmatory antitumor test at the National Cancer Institute, L1210 (Table IV); format: in vivo, Mice
Text: Samples of the malonato diammine and malonato ethylene diamine complexes of platinum(II) were submitted to the Drug Research and Development Branch of the National Cancer Institute for screening for antitumor activity against the L1210 tumor in mice. They confirm the activity of the compounds of the invention.

[6] = 10 mg/kg, single i.p. injection day 1, solution in H2O
[7] = 20 mg/kg, single i.p. injection day 1, solution in H2O
[8] = 40 mg/kg, single i.p. injection day 1, solution in H2O
[9] = 45 mg/kg, single i.p. injection day 1, solution in H2O
[10] = 50 mg/kg, single i.p. injection day 1, solution in H2O
[11] = 55 mg/kg, single i.p. injection day 1, solution in H2O
[12] = 60 mg/kg, single i.p. injection day 1, solution in H2O
[13] = 80 mg/kg, single i.p. injection day 1, solution in H2O
[14] = dose level 60 (unit not given), single i.p. injection day 1
[15] = dose level 80 (unit not given), single i.p. injection day 1
[16] = dose level 100 (unit not given), single i.p. injection day 1
[17] = dose level 120 (unit not given), single i.p. injection day 1
[18] = dose level 20 (unit not given), single i.p. injection day 1
[19] = dose level 40 (unit not given), single i.p. injection day 1
[20] = 20 mg/kg, single i.p. injection day 1
[21] = 40 mg/kg, single i.p. injection day 1
[22] = 60 mg/kg, single i.p. injection day 1
[23] = 80 mg/kg, single i.p. injection day 1
[24] = 100 mg/kg, single i.p. injection day 1
[25] = 120 mg/kg, single i.p. injection day 1
[26] = 160 mg/kg, single i.p. injection day 1
[27] = 30 mg/kg, single i.p. injection day 1, solution in H2O
[28] = 70 mg/kg, single i.p. injection day 1, solution in H2O
[29] = 90 mg/kg, single i.p. injection day 1, solution in H2O
[30] = dose level 45 (unit not given), single i.p. injection day 1
[31] = dose level 75 (unit not given), single i.p. injection day 1
[32] = dose level 90 (unit not given), single i.p. injection day 1
[33] = dose level 110 (unit not given), single i.p. injection day 1
[34] = 140 mg/kg, single i.p. injection day 1
[35] = 180 mg/kg, single i.p. injection day 1

## NCCN.O=C([O-])CC(=O)[O-].[Pt+2] [malonatoethylenediamineplatinum (II)]
[1]; [6]
  No. of Deaths: 0
  T/C: 88
[1]; [7]
  No. of Deaths: 0
  T/C: 58
[1]; [8]
  No. of Deaths: 0
  T/C: 18
[1]; [9]
  No. of Deaths: 0
  T/C: 49
[1]; [10]
  No. of Deaths: 0
  T/C: 35
[1]; [11]
  No. of Deaths: 0
  T/C: 38
[1]; [12]
  No. of Deaths: 3/6
  T/C: 15
[1]; [13]
  No. of Deaths: 3/6
  T/C: 24
[1]; [14]
  No. of Deaths: 0
  T/C: 80
[1]; [15]
  No. of Deaths: 0
[1]; [16]
  No. of Deaths: 0
  T/C: 85
[1]; [17]
  No. of Deaths: 0
  T/C: 50
[2]; 40 mg/kg
  Deaths: 3
  Total Number of Regressions: 3
[2]; 45 mg/kg
  Deaths: 5
  Total Number of Regressions: 1
[2]; 50 mg/kg
  Deaths: 4
  Total Number of Regressions: 2
[2]; 60 mg/kg
  Deaths: 3
  Total Number of Regressions: 3
[3]; dose 10 (unit not given)
  % Inhibition: 1%
  Deaths: 0
[3]; dose 20 (unit not given)
  % Inhibition: 25%
  Deaths: 0
[3]; dose 40 (unit not given)
  % Inhibition: 100%
  Deaths: 0
[3]; dose 80 (unit not given)
  % Inhibition: 100%
  Deaths: 0
[3]; dose 160 (unit not given)
  Deaths: all
[4]; dose 4 (unit not given)
  % Inhibition: 1.3%
  Deaths: 0
[4]; dose 20 (unit not given)
  % Inhibition: 94%
  Deaths: 0
[4]; dose 100 (unit not given)
  % Inhibition: 100%
  Deaths: 0
[4]; dose 500 (unit not given)
  Deaths: all
[5]; 11 mg/kg, daily injections days 1-9, i.p. (repeat test)
  % Increase in Lifespan: 145%
[5]; 12.5 mg/kg, daily injections days 1-9, i.p.
  % Increase in Lifespan: 151%
[5]; 16.5 mg/kg, daily injections days 1-9, i.p. (repeat test)
  % Increase in Lifespan: 160%
[5]; 25 mg/kg, daily injections days 1-9, i.p.
  % Increase in Lifespan: 160%
[5]; 25 mg/kg, daily injections days 1-9, i.p. (repeat test)
  % Increase in Lifespan: 196%
[5]; 37.5 mg/kg, daily injections days 1-9, i.p. (repeat test)
  % Increase in Lifespan: 121%
[5]; 50 mg/kg, daily injections days 1-9, i.p.
  % Increase in Lifespan: 101%

## NCCCN.O=C([O-])CC(=O)[O-].[Pt+2] [malonato-1,3 propylenediamineplatinum (II)]
[1]; [18]
  No. of Deaths: 0
  T/C: 69
[1]; [19]
  No. of Deaths: 0
  T/C: 79
[1]; [14]
  No. of Deaths: 0
  T/C: 21
[1]; [15]
  No. of Deaths: 1
  T/C: 35

## N.N.O=C([O-])C1(C(=O)[O-])CCC1.[Pt+4] [1,1-cyclobutanedicarboxylate diammineplatinum (II)]
[1]; [20]
  No. of Deaths: 0
  T/C: 71
[1]; [21]
  No. of Deaths: 0
  T/C: 60
[1]; [22]
  No. of Deaths: 0
  T/C: 38
[1]; [23]
  No. of Deaths: 0
  T/C: 42
[1]; [24]
  No. of Deaths: 0
  T/C: 69
[1]; [25]
  No. of Deaths: 0
  T/C: 18
[1]; [26]
  No. of Deaths: 4
  T/C: 62

## CC1C(=O)[O][Pt]([NH2])([NH2])[O]C1=O [Methylmalonatodiammineplatinum (II)]
[1]; [27]
  No. of Deaths: 0
  T/C: 39
[1]; [8]
  No. of Deaths: 0
  T/C: 26
[1]; [10]
  No. of Deaths: 0
  T/C: 35
[1]; [12]
  No. of Deaths: 0
  T/C: 6
[1]; [28]
  No. of Deaths: 3/6
[1]; [13]
  No. of Deaths: 6/6

## CC1C(=O)[O][Pt]2([NH]CC[NH]2)[O]C1=O [methylmalonatoethylenediamineplatinum(II)]
[1]; [27]
  No. of Deaths: 0
  T/C: 78
[1]; [8]
  No. of Deaths: 0
  T/C: 80
[1]; [10]
  No. of Deaths: 0
  T/C: 51
[1]; [12]
  No. of Deaths: 0
  T/C: 26
[1]; [28]
  No. of Deaths: 1
  T/C: 20
[1]; [29]
  No. of Deaths: 1
  T/C: 4

## CC(N)CN.O=C([O-])CC(=O)[O-].[Pt+2] [malonato-1,2 propylenediamineplatinum (II)]
[1]; [30]
  No. of Deaths: 0
  T/C: 50
[1]; [14]
  No. of Deaths: 1
  T/C: 9
[1]; [31]
  No. of Deaths: 3
  T/C: 16
[1]; [32]
  No. of Deaths: 5

## CCC1C(=O)[O][Pt]2([NH]CC[NH]2)[O]C1=O [ethylmalonatoethylenediamineplatinum (II)]
[1]; [19]
  No. of Deaths: 0
  T/C: 72
[1]; [14]
  No. of Deaths: 0
  T/C: 81
[1]; [15]
  No. of Deaths: 0
  T/C: 79
[1]; [32]
  No. of Deaths: 0
  T/C: 47
[1]; [16]
  No. of Deaths: 1
  T/C: 55
[1]; [33]
  No. of Deaths: 0
  T/C: 41
[1]; [17]
  No. of Deaths: 0
  T/C: 58

## CCC(C(=O)[O-])C(=O)[O-].N.N.[Pt+2] [ethylmalonatodiammineplatinum (II)]
[1]; [27]
  No. of Deaths: 0
  T/C: 57
[1]; [8]
  No. of Deaths: 0
  T/C: 43
[1]; [10]
  No. of Deaths: 0
  T/C: 47
[1]; [12]
  No. of Deaths: 0
  T/C: 39
[1]; [28]
  No. of Deaths: 0
  T/C: 17
[1]; [13]
  No. of Deaths: 0
  T/C: 16

## CN.CN.O=C([O-])CC(=O)[O-].[Pt+2] [malonatobis (methylamine) platinum (II)]
[1]; [23]
  No. of Deaths: 0
  T/C: 58
[1]; [24]
  No. of Deaths: 0
  T/C: 53
[1]; [25]
  No. of Deaths: 0
  T/C: 28
[1]; [34]
  No. of Deaths: 0
  T/C: 25
[1]; [26]
  No. of Deaths: 1
  T/C: 17
[1]; [35]
  No. of Deaths: 1
  T/C: 19
